From US20040043403A1, “Process for determining the biological activity of epidermal growth factor receptor tyrosine kinase inhibitors” (priority 2000, published 2004)

Assays:
[1] = test system: NCI-H596; assay: Western blot of clusterin induction in NCI-H596 cells; type: cell-based, human; settings: NCI-H596 cells (moderate levels of EGFR), 300 nM, 24 h, vs 0.03% DMSO
Description: An EGFR tyrosine kinase inhibitor is dissolved in DMSO to obtain a 10 mM stock solution. The stock solution is further diluted in culture medium to final concentrations of 10 nM to 3 μM. 3.5 million cells/100 mm dish/12 ml culture medium are incubated for 24 h in 5% CO2 at 37° C. The medium is replaced with medium containing the EGFR tyrosine kinase inhibitor or DMSO. Cells are incubated for 4 to 32 h. The frozen pellets are lysed in 500 μl of lysis buffer (50 mM Tris-HCl pH 7.5, 1% Sodium Dodecyl Sulfate (SDS)). To shear genomic DNA, the cell lysates are processed in a FastPrep instrument for 20 sec at a speed rating of 4, using the green […] tubes (Bio101#6040-6010). Protein concentrations are determined according to the PIERCE-method (BCA Protein Assay, Reagent A and B). Protein concentration of lysates is adjusted to 1 μg/μl with lysis buffer. 4 parts of cell lysates are mixed with 1 part of 5 fold concentrated Laemmli buffer, the lysates are stored at -20° C. 40 μl of cell lysate is heated for 3 min to 95° C. and directly loaded on to 10% or 15% SDS-PAGE gels. The gels are run at 130 V for 90 min under standard conditions. The separated proteins are semi-dry blotted on to a PVDF membrane (Immobilon-P, Millipore #IPVH 202 00) for 70 min with 45 mA per blot. […]

[2] = test system: NCI-H520; assay: Real time RT-PCR gene expression in NCI-H520 cells; type: cell-based, human; settings: NCI-H520, 3 μM, 24 h; relative to DMSO-treated NCI-H520 calibrator
Description: 20 million tissue culture cells (about 80% confluent) or 200 million WBCs are incubated for 2 or 24 h in culture medium containing 3 μM of an EGFR tyrosine kinase inhibitor or 0.03% DMSO. Total RNA from cell pellet is isolated using the RNeasy kit (Qiagen). mRNA is isolated using the oligotex mRNA purification kit (Qiagen). The quality of the obtained mRNA is tested by real time RT-PCR using beta-Actin primers (PE Applied Biosystems) with an amplicon size of 300 base pairs (bp). The total RNA is used as a reference to calculate the amount of mRNA-enrichment in the oligotex purified samples. The primers and probes are designed from mRNA sequences within the coding region or in the 3′ untranslated region (Table 2). For real time RT-PCR, RNA concentrations between 1 and 50 ng/reaction are used to obtain signals between 15-35 cycles. For each RNA preparation RT-PCR reactions are performed with and without reverse transcriptase to check for genomic DNA contamination. In all RNA samples tested, genomic DNA contamination is less than 1%. To normalize for variability in the initial concentration and quality of the total RNA, Glyceraldehyde-3-phosphate dehydrogenase (GAPDH) is used as an endogenous reference in all quantification experiments. For RT-PCR a one step, two-enzyme system is chosen. The TaqMan PCR Core Reagent Kit (PE #N808-0228) plus the reverse transcriptase MuLV (PE Biosystems # N808-0018) and RNase inhibitor (Roche Diagnostics # 799 025) are mixed as described in the manufacturers protocol. Triplicate measurements are done for target and for reference reactions. […] RT-PCR reactions are done with RNA concentrations of 2.5, 5, 10, 20, 40 and 80 ng per reaction. […] The ΔCT value is determined by subtracting the average reference CT values from the average target CT values of the three measurements. Relative quantification is performed in triplicates, reference and target, using the RT-PCR protocol described above. […] Expression levels for the three genes, calculated relative to NCI-H520, show big differences between the various cell types (Table 5). […]

C[C@@H](Nc1ncnc2[nH]c(-c3ccc(O)cc3)cc12)c1ccccc1 [COMPOUND A, (R)-6-(4-hydroxy-phenyl)-4-[(1-phenyl-ethyl)-amino]-7H-pyrrolo[2,3-d]pyrimidine]
Clusterin induction, Western blot (FIG. 4) [1]: no significant clusterin induction | Relative Clusterin expression [2]: 0.61 n-fold | Relative TRAIL expression [2]: 0.39 n-fold | Relative VAC-beta expression [2]: 0.75 n-fold
